Several values for one entry are separate records, joined by “and”; a condition that tells them apart may be missing. Equal values may be shown once. Toxic doses and inconclusive results are not listed. How the source made its calls: active means survival T/C of 150% or more; inactive means T/C below 125% in these data.
Test system: P1534 leukemia ip, CD2F1 mice, survival T/C
Experiment: NCI In Vivo Anticancer Drug Screen. Data for tumor model P1534 Leukemia (intraperitoneal) in CD2F1 (CDF1) mice
Settings: endpoint: mean survival time, higher = longer survival
Protocol: The antitumor activity of compounds was measured in mice bearing transplantable tumors. Survival or tumor size were measured and the results are expressed as the measurement made in the treated group (T) divided by the measurement made in the vehicle treated control group (C). The tumor model used in this assay is P1534 Leukemia (intraperitoneal) in CD2F1 (CDF1) mice

[1] = dose: 12.5 mg/kg/injection, schedule: Q01DX010 (ip), vehicle: saline
[2] = dose: 25.0 mg/kg/injection, schedule: Q01DX010 (ip), vehicle: saline
[3] = dose: 100.0 mg/kg/injection, schedule: Q01DX010 (ip), vehicle: saline
[4] = dose: 10.0 mg/kg/injection, schedule: Q01DX010 (ip), vehicle: saline
[5] = dose: 20.0 mg/kg/injection, schedule: Q01DX010 (ip), vehicle: saline
[6] = dose: 40.0 mg/kg/injection, schedule: Q01DX010 (ip), vehicle: saline
[7] = dose: 80.0 mg/kg/injection, schedule: Q01DX010 (ip), vehicle: saline
[8] = dose: 50.0 mg/kg/injection, schedule: Q01DX010 (ip), vehicle: saline
[9] = dose: 15.6 mg/kg/injection, schedule: Q01DX010 (ip), vehicle: saline
[10] = dose: 31.3 mg/kg/injection, schedule: Q01DX010 (ip), vehicle: saline
[11] = dose: 62.5 mg/kg/injection, schedule: Q01DX010 (ip), vehicle: saline
[12] = dose: 200.0 mg/kg/injection, schedule: Q01DX010 (ip), vehicle: water
[13] = dose: 400.0 mg/kg/injection, schedule: Q01DX010 (ip), vehicle: water
[14] = dose: 125.0 mg/kg/injection, schedule: Q01DX010 (ip), vehicle: saline
[15] = dose: 150.0 mg/kg/injection, schedule: Q01DX010 (ip), vehicle: water

Measured: T/C

N=C(N)SCc1c2ccccc2c(CSC(=N)N)c2ccccc12
inactive: dose: 0.31 mg/kg/injection, schedule: Q01DX010 (ip), vehicle: saline 117 % of control | dose: 0.63 mg/kg/injection, schedule: Q01DX010 (ip), vehicle: saline 121 % of control

O=C(NCCCC(NC(=O)OCc1ccccc1)C(=O)NCCCCCCNCCCCCCNC(=O)C(CCCNC(=O)OCc1ccccc1)NC(=O)OCc1ccccc1)OCc1ccccc1 (stereo not drawn)
inactive: [1] 100 % of control | [2] 100 % of control | [3] 100 % of control

COc1ccc(C(=O)C[C@H]2CCC[C@@H](CC(=O)c3ccc(OC)cc3)N2C)cc1
inactive: [4] 107 % of control | [5] 100 % of control | [6] 100 % of control | [7] 107 % of control

OC(CBr)C(O)C(O)C(O)CBr (stereo not drawn)
inactive: [1] 103 % of control | [2] 103 % of control | [8] 103 % of control | [3] 103 % of control

CC[C@H](CC[C@@H](C)[C@H]1CC[C@H]2[C@@H]3CC=C4C[C@@H](O)CC[C@]4(C)[C@H]3CC[C@]12C)C(C)C
inactive: dose: 50.0 mg/kg/injection, schedule: Q01DX010 (ip), vehicle: other 100 % of control | dose: 100.0 mg/kg/injection, schedule: Q01DX010 (ip), vehicle: other 100 % of control | dose: 200.0 mg/kg/injection, schedule: Q01DX010 (ip), vehicle: other 106 % of control | dose: 300.0 mg/kg/injection, schedule: Q01DX010 (ip), vehicle: other 108 % of control

SCc1ccccn1
inactive: [2] 107 % of control | [8] 100 % of control | [3] 115 % of control | dose: 200.0 mg/kg/injection, schedule: Q01DX010 (ip), vehicle: saline 115 % of control

NCCc1ccccc1
inactive: [9] 96 % of control | [10] 92 % of control | [11] 100 % of control

CCC(C)n1ncc2c(N(C)C)ncnc21 (stereo not drawn)
inactive: dose: 16.25 mg/kg/injection, schedule: Q01DX010 (ip), vehicle: saline 107 % of control | dose: 32.5 mg/kg/injection, schedule: Q01DX010 (ip), vehicle: saline 111 % of control | dose: 65.0 mg/kg/injection, schedule: Q01DX010 (ip), vehicle: saline 96 % of control

COc1ccc2c3c(c4cc(OC)c(OC)cc4c2c1)C[C@H]1CCCCN1C3
inactive: dose: 0.3 mg/kg/injection, schedule: Q01DX010 (ip), vehicle: saline 100 % of control | dose: 0.5 mg/kg/injection, schedule: Q01DX010 (ip), vehicle: saline 113 % of control

COc1ccc(Cc2nccc3cc(OC)c(OC)cc23)cc1OC
inactive: [4] 100 % of control | [5] 100 % of control | [6] 100 % of control | [7] 100 % of control

C1CCNCC1
inactive: [1] 96 % of control | [2] 100 % of control | [8] 100 % of control | [3] 96 % of control

O=C(CCCNC(=O)OCc1ccccc1)NCCCCCCCCCCNC(=O)CCCNC(=O)OCc1ccccc1
inactive: [8] 89 % of control | [3] 89 % of control

COc1cc(C(=O)CC2CCCCN2)ccc1O (stereo not drawn)
inactive: [4] 100 % of control | [5] 96 % of control | [6] 96 % of control | [7] 93 % of control

O=C(NO)c1ccncc1
inactive: [12] 101 % of control | dose: 200.0 mg/kg/injection, schedule: Q02DX005 (ip), vehicle: water 106 % of control | dose: 300.0 mg/kg/injection, schedule: Q01DX010 (ip), vehicle: water 108 % of control | dose: 300.0 mg/kg/injection, schedule: Q02DX005 (ip), vehicle: water 99 % of control | dose: 335.0 mg/kg/injection, schedule: Q01DX010 (ip), vehicle: water 106 % of control | [13] 106 % of control | dose: 400.0 mg/kg/injection, schedule: Q02DX005 (ip), vehicle: water 110 % of control | dose: 500.0 mg/kg/injection, schedule: Q01DX010 (ip), vehicle: water 103 % of control | dose: 600.0 mg/kg/injection, schedule: Q01DX010 (ip), vehicle: water 111 % of control | dose: 600.0 mg/kg/injection, schedule: Q02DX005 (ip), vehicle: water 106 % of control | dose: 800.0 mg/kg/injection, schedule: Q02DX005 (ip), vehicle: water 109 % of control

CN(/N=N/N(C)c1ccccc1)c1ccccc1
inactive: [9] 115 % of control | [10] 103 % of control | [11] 111 % of control | [14] 100 % of control

NNC(=O)c1cnccn1
inactive: dose: 40.0 mg/kg/injection, schedule: Q01DX010 (ip), vehicle: water 121 % of control | dose: 80.0 mg/kg/injection, schedule: Q01DX010 (ip), vehicle: water 110 % of control and 97 % of control

NC1=NNC(=O)C1
inactive: dose: 100.0 mg/kg/injection, schedule: Q01DX010 (ip), vehicle: water 95 % of control | [15] 95 % of control

OCCOCCN1CCN(CCCN2c3ccccc3Sc3ccc(C(F)(F)F)cc32)CC1
inactive: dose: 5.0 mg/kg/injection, schedule: Q01DX010 (ip), vehicle: saline 100 % of control | [4] 111 % of control | [5] 123 % of control | [6] 119 % of control

C[n+]1c2ccccc2nc2c(N)cc(N)cc21
inactive: dose: 5.2 mg/kg/injection, schedule: Q01DX010 (ip), vehicle: saline 114 % of control

O=C(NO)c1ccc([N+](=O)[O-])cc1
inactive: dose: 270.0 mg/kg/injection, schedule: Q01DX010 (ip), vehicle: water 108 % of control | [13] 112 % of control

c1ccc(CCSc2ncnc3nc[nH]c23)cc1
inactive: [14] 100 % of control | dose: 500.0 mg/kg/injection, schedule: Q01DX010 (ip), vehicle: saline 103 % of control

O=P1(N(CCCl)CCCl)NCCCO1 (stereo not drawn)
inactive: dose: 2.9 mg/kg/injection, schedule: Q01DX010 (ip), vehicle: saline 98 % of control | dose: 5.7 mg/kg/injection, schedule: Q01DX010 (ip), vehicle: saline 106 % of control | dose: 11.3 mg/kg/injection, schedule: Q01DX010 (ip), vehicle: saline 111 % of control

COc1cc2c3c(c4cc(OC)c(OC)cc4c2cc1OC)CN1CCC[C@H]1C3
inactive: dose: 3.9 mg/kg/injection, schedule: Q01DX010 (ip), vehicle: saline 115 % of control | dose: 7.8 mg/kg/injection, schedule: Q01DX010 (ip), vehicle: saline 107 % of control

COC(=O)C1=COC(C)C2CN3CCc4c([nH]c5ccccc45)C3CC12 (stereo not drawn)
inactive: [5] 96 % of control | [6] 93 % of control | [7] 96 % of control

COc1cc(-c2ccc(Nc3ccccc3C(=O)O)c(OC)c2)ccc1Nc1ccccc1C(=O)O
inactive: [1] 107 % of control | [2] 114 % of control and 117 % of control | [8] 117 % of control

CN1C2CCC1CC(OC(=O)C(CO)c1ccccc1)C2 (stereo not drawn)
inactive: [2] 96 % of control | [8] 100 % of control

Cc1n[nH]c(C)c1Br
inactive: [15] 101 % of control | [12] 104 % of control

CNC(C)C(O)c1ccccc1 (stereo not drawn)
inactive: dose: 37.5 mg/kg/injection, schedule: Q01DX010 (ip), vehicle: saline 96 % of control | dose: 75.0 mg/kg/injection, schedule: Q01DX010 (ip), vehicle: saline 92 % of control
